Measured values: article PMC5051066, “Pharmacokinetics of calycopterin and xanthmicrol, two polymethoxylated hydroxyflavones with anti-angiogenic activities from Dracocephalum kotschyi Bioss” (DARU Journal of Pharmaceutical Sciences, 2016)
“Also recorded” adds a separate entry of the source.

Legend:
[1] = Predicted plasma concentration-time profiles from the two compartment models; details: rat, single I.V. dose of 30 mg/kg, predicted from two compartment model
Procedure: Our aim in this work was to find doses of these flavonoids which could produce such plasma levels over extended periods. […] The models generated, were used to predict the plasma concentration-time profiles for different doses of calycopterin and xanthomicrol (Fig. 7). After a single I.V. dose of 30 mg/kg, xanthomicrol plasma concentration would be greater than 500 ng/mL for more than 6 h while calycopterin’s plasma concentration would dip below 500 ng/mL 30 min after administration.
Fig. 7 Predicted plasma calycopterin (●) and xanthomicrol (○) concentration-time profiles after a single IV bolus dose of 30 mg/kg or either compound in the rat. The values were calculated based upon the two compartment models developed in this work

[2] = Solubility in water based solvent systems (vehicle selection); format: physicochemical
Procedure: A number of solvents which were able to dissolve xanthomicrol and calycopterin were investigated as vehicles for the delivery of these compounds into the blood stream. DMSO was chosen as it is relatively benign in terms of toxicological effects (a number of drug formulations or medical devices containing DMSO are marketed e.g., RIMSO-50 from Bioniche Pharma, USA and Dolicur from Schering, Germany). Also, the volume required as vehicle (200 μL) was small compared to total blood volume in rat (about 20 mL) and would be unlikely to have an appreciable effect on pharmacokinetics of flavonoids being studied.

HUVEC cell = test system: HUVEC cell; set-up: method as in PMID 24895220; details: at 500 ng/mL; cited from earlier work
[3] = Pharmacokinetic study after i.v. administration in rats (online SPE HPLC of plasma, two-compartment model); format: in vivo, male Wistar rats; details: for t1/2 (biological half-life) / K12 (rate constant of transfer from the peripheral compartment into the central compartment) / K21 (rate constant of transfer from the central compartment into the peripheral compartment) / half-life / C0 / clearance / k el / Vd: i.v. bolus, 20 mg/kg; for t1/2 (biological half-life) / half-life / C0 / clearance / k el / Vd: plasma; for K12 (rate constant of transfer from the peripheral compartment into the central compartment) / K21 (rate constant of transfer from the central compartment into the peripheral compartment) / C0 / clearance / k el / Vd: two-compartment model; for half-life / C0 / clearance / k el / Vd: male, Wistar, rat, iv; for half-life: read-out: t1/2 (biological half-life) (converted); for C0: read-out: C0 (initial plasma concentration); for clearance: read-out: Cla (clearance rate of the central compartment) (converted); for k el: read-out: Kel (rate constant of elimination from the central compartment) (converted); for Vd: read-out: Vc (volume of distribution of the central compartment)
Procedure: Confirmation of calycopterin, xanthomicrol and circimaritin identity was carried out using HPLC analysis of purified compound compared to the material obtained from previous work and also IR spectroscopy. A HPLC method with online solid phase extraction was developed for the analysis of xanthomicrol and calycopterin in biological fluids (Fig. 1) using circimaritin as internal standard (IS). 100 μL of plasma and 10 μL of 500 μg/mL IS were mixed in a 2 mL microcentrifuge tube. 40 μL of 10 mg/mL ZnSO4 was added to the tube and the content was mixed. After addition of 200 μL acetonitrile, the tube was placed in an orbital shaker for 10 min. The samples were subsequently centrifuged at 14000 g for 10 min the supernatant was subjected to online extraction/HPLC analysis as follows:
At the start of every run, the sample injection valve and the sample extraction valve were switched to load position (Fig. 1). 250 μL of sample was injected into the sample loop of the sample injection valve. The valve was switched to the inject position which diverted the flow from the online SPE (solid phase extraction) solvent delivery pump (500 μL/min) through the sample loop which in turned carried the sample onto the online SPE column (3×15mm, ODS-2, 5 μm). After 2 min, the sample extraction valve was switched to inject position. This allowed the mobile phase from the analysis solvent delivery pump (1 mL/min) to wash any material retained by the online SPE system, onto the analytical column (4.6×150mm, ODS-2, 5 μm, Tracer Excell, Technochroma, Spain) for separation and measurement. The mobile phase pumped by online SPE solvent delivery pump consisted of acetonitrile:water (35:65) and the mobile phase pumped by the analysis solvent delivery pump was composed of acetonitrile:methanol:water:triethylamine (37:24:38.5:0.5). 16 min after the start of analysis, the mobile phase pumped by the analysis solvent delivery pump was switched to methanol:tetrahydrofurane:dichloromethane (80:10:10) for 3 min. This allowed for highly non-polar compounds retained by the SPE and analytical column to be flushed. Detection was at 263 nm.
All procedures involving animals were carried out after the approval and under the supervision of the Ethics Committee for Animal Expreiments of Iran University for Medical Sciences. In order to be able to withdraw blood samples at predefined time points during pharmacokinetic studies, femoral vein of male Wistar rats, in the weight range of 280 to 300 g, were catheterized, under anaesthesia, using the method described by Jespersen et al.. After the placement of the catheter, the animals were allowed to recover for 24 h, during which time, the rats were checked for signs of bleeding and the catheters were checked for patency.
Xanthomicrol or calycopterin was dissolved in 200 μL of dimethylsulfoxide (DMSO) and injected into the dorsal tail vein of rats. Just before drug injection (time zero) and at 1, 5, 10, 20, 60, 120 and 240 min after drug injection, 300 μL of blood were withdrawn via the femoral vein which had been catheterized previously. In order to prevent phlebotomy induced hypovolemia, 200 μL normal saline was injected via the femoral catheter after each blood sample withdrawal. Blood samples were centrifuged at 4 °C for 10 min at 4000 g. Plasma was collected and stored frozen at -80 °C until needed.
Pharmacokinetic parameters obtained from constructing the residual concentration verses time curve for these two-compartmental models are presented in Table 3. Rate constants for transfer between the central and peripheral compartments (K21and K12) and also the elimination process (Kel) were also calculated.

Balb/C mice [4] = assay: Toxicological study in mice: serum creatinin, ALT, AST (kidney and liver functions); format: in vivo; details: for Serum ALT / Serum AST / Serum Creatinin: mice, I.P.
Procedure: (§1) Toxicity studies were carried out using Balb/C mice in the 25-30 g weight range. Drug administration was via the I.P. methoud. Animals were assigned to five groups of three: one-Control groups which received no treatment, two-Vehicle control which received 60 μL of DMSO (dimethyl sulfoxide) for 6 days, 3- Test group one which received 30 mg/kg body weight xanthomicrol in 60 μL of DMSO per day, 4- Test group two which received 40 mg/kg body weight xanthomicrol on 60 μL of DMSO per day and 5- Test group three which received 50 mg/kg body weight xanthomicrol on 60 μL of DMSO per day. The animals were weighed and examined for changes in skin tone, signs of fur loss and changes in bowl function. On the seventh day, the animals were anaesthetized under an atmosphere of chloroform. Once fully anaesthetized, blood samples were collected from the heart and the animals were killed by cervical dislocation. Serum samples were analyzed for hepatic enzymes AST and ALT [16] and also for creatinin levels. Kidneys, liver, lung, intestines and stomach were removed from animals and placed in 10 % formalin solution for subsequent paraffin embedding, sectioning, staining and histological studies. Tissue sections were examined for fibrotic, inflammatory and vascular changes by a qualified pathologist.

Balb/C mice [5] = assay: Toxicological study in mice: tissue histology; format: in vivo
Procedure: as §1

Balb/C mice [6] = assay: Toxicological study in mice: body weight, mortality, behaviour, overt toxicity; format: in vivo; details: for toxic effects overall (behavioral, histological, biochemical): repeated administrations at administered doses (30, 40 and 50 mg/kg/day for six days)
Procedure: as §1

[7] = mice, 30, 40 or 50 mg/kg body weight
[8] = Test group 1 (30 mg/kg per day, I.P.), Lung/Liver/Heart/ Kidney, single animal
[9] = Test group 1 (30 mg/kg per day, I.P.), Small intestine/ Large intestine/ Gastric wall, single animals
[10] = Test group 2 (40 mg/kg per day, I.P.), Lung/Liver/Heart/ Kidney, single animals, listed as xanthimcrol, 40 mg/kg/day
[11] = Test group 2 (40 mg/kg per day, I.P.), Small intestine/ Large intestine/ Gastric wall, single animal
[12] = Test group 3 (50 mg/kg per day, I.P.), Lung/Liver/Heart/ Kidney, single animals
[13] = Test group 3 (50 mg/kg per day, I.P.), Lung/Liver/Heart/ Kidney, single animals, listed as xanthimcrol, 50 mg/kg/day
[14] = Test group 3 (50 mg/kg per day, I.P.), Small intestine/ Large intestine/ Gastric wall, single animal
[15] = mice, 30, 40 and 50 mg/kg/day for six days

COc1c(OC)c(O)c2c(=O)c(OC)c(-c3ccc(O)cc3)oc2c1OC [Calycopterin, calycopterin]
time after administration at which plasma concentration would dip below 500 ng/mL [1]: 30 min | solubility in water based solvent systems [2]: do not dissolve in water based solvent systems | effect on capillary-like tube formation (HUVEC cell): inhibited capillary-like tube formation | volume of distribution of calycopterin relative to xanthomicrol ([3]; i.v.): about 8 times | t1/2 (biological half-life) [3]: 3.8 h | K12 (rate constant of transfer from the peripheral compartment into the central compartment) [3]: 1.39 h⁻¹ | K21 (rate constant of transfer from the central compartment into the peripheral compartment) [3]: 0.52 h⁻¹ | half-life [3]: ~4 h | C0 [3]: 312 ng/mL | clearance [3]: 280 mL/min | k el [3]: 7.22e-05 s⁻¹ | Vd [3]: 63.9 L

COc1c(OC)c(O)c2c(=O)cc(-c3ccc(O)cc3)oc2c1OC [Xanthomicrol, xanthomicrol]
difference in alanine transaminase (ALT) activity between control, vehicle and test groups (Balb/C mice [4]; [7]): no significant differences | difference in aspartic acid transaminase (AST) activity between control, vehicle and test groups (Balb/C mice [4]; [7]): no significant differences; also recorded: not significantly different | difference in serum creatinin content between control, vehicle and test groups (Balb/C mice [4]; [7]): no significant differences | Serum ALT (Balb/C mice [4]; 30 mg/kg per day for 6 days): 38 ± 8.8 IU/L | Serum AST (Balb/C mice [4]; 30 mg/kg per day for 6 days): 138 ± 37 IU/L | Serum ALT (Balb/C mice [4]; 40 mg/kg per day for 6 days): 22 ± 19 IU/L | Serum AST (Balb/C mice [4]; 40 mg/kg per day for 6 days): 130 ± 49 IU/L | Serum Creatinin (Balb/C mice [4]; 40 mg/kg per day for 6 days): 0.35 ± 0.036 mg/dL | Serum ALT (Balb/C mice [4]; 50 mg/kg per day for 6 days): 30 ± 3.0 IU/L | Serum AST (Balb/C mice [4]; 50 mg/kg per day for 6 days): 316 ± 163 IU/L | Serum Creatinin (Balb/C mice [4]; 50 mg/kg per day for 6 days): 0.39 ± 0.02 mg/dL | time for which plasma concentration would be greater than 500 ng/mL [1]: more than 6 h | solubility in water based solvent systems [2]: do not dissolve in water based solvent systems | effect on capillary-like tube formation (HUVEC cell): inhibited capillary-like tube formation | t1/2 (biological half-life) [3]: 4.2 h | K12 (rate constant of transfer from the peripheral compartment into the central compartment) [3]: 1.88 h⁻¹ | K21 (rate constant of transfer from the central compartment into the peripheral compartment) [3]: 0.46 h⁻¹ | half-life [3]: ~4 h | C0 [3]: 2340 ng/mL | clearance [3]: 30 mL/min | k el [3]: 5.83e-05 s⁻¹ | Vd [3]: 8.5 L | Fibrosin (Balb/C mice [5]; [8]): Absent | Inflammation structural change (Balb/C mice [5]; [8]): Absent | Notes (histology) (Balb/C mice [5]; [8]): Normal | Vascular change (Balb/C mice [5]; [8]): None | Fibrosin (Balb/C mice [5]; [9]): Absent | Inflammation structural change (Balb/C mice [5]; [9]): Absent | Notes (histology) (Balb/C mice [5]; [9]): Normal | Vascular change (Balb/C mice [5]; [9]): None | Fibrosin (Balb/C mice [5]; Test group 2 (40 mg/kg per day, I.P.), Lung/Liver/Heart/ Kidney, single animals): Absent | Inflammation structural change (Balb/C mice [5]; [10]): Lymphocyte infilteration in lung sample, Subcapsular inflammation in liver sample; also recorded: Focal inflammation in lung tissue | Notes (histology) (Balb/C mice [5]; [10]): Normal; also recorded: Increased type II pneumocytes | Vascular change (Balb/C mice [5]; [10]): Hypermic; also recorded: Increased vascularization in lung sample | Fibrosin (Balb/C mice [5]; [11]): Absent | Inflammation structural change (Balb/C mice [5]; [11]): Absent | Notes (histology) (Balb/C mice [5]; [11]): Normal | Vascular change (Balb/C mice [5]; [11]): None | Fibrosin (Balb/C mice [5]; [12]): Absent | Vascular change (Balb/C mice [5]; [12]): None | Inflammation structural change (Balb/C mice [5]; [13]): Focal inflammation in lung sample; also recorded: Absent | Notes (histology) (Balb/C mice [5]; [13]): Increased type II pneumocytes; also recorded: Normal | Fibrosin (Balb/C mice [5]; [14]): Absent | Inflammation structural change (Balb/C mice [5]; [14]): Absent | Vascular change (Balb/C mice [5]; [14]): None | Histological examination of tissue samples compared to the control group (Balb/C mice [5]; [15]): absence of significant pathological change; also recorded: unable to find xenobiotic induced damage to vital organs | change in animal weights compared to control group (Balb/C mice [6]; [15]): no change in animal weights | motor or behavioral abnormalities (Balb/C mice [6]; [15]): no animal showed any signs of motor or behavioral abnormalities | toxic effects overall (behavioral, histological, biochemical) (Balb/C mice [6]; mice): did not appear to have toxic effects | toxic effects overall (behavioral, histological, biochemical) (Balb/C mice [6]; mice, listed as xanthomicrol): failed to show any behavioral, histological and biochemical adverse effects | weight of animals (Balb/C mice [6]; mice, xanthomicrol groups, control group 27.1 g ± 1.2): 27.7 ± 1.7 g | acute toxic effects (Balb/C mice [6]; mouse, in vivo): appears not to have acute toxic effects
